Several values for one entry are separate records, joined by “and”; a condition that tells them apart may be missing. Identical values can stand only once. Inconclusive results and toxic doses are left out. Cut-off read from the data, not from the text of the source: active = T/C of 150% or more; inactive = T/C below 125%.
Tested on: L1210 leukemia ip in BDF1 mice, survival T/C
Assay: NCI In Vivo Anticancer Drug Screen. Data for tumor model L1210 Leukemia (intraperitoneal) in B6D2F1 (BDF1) mice
Settings: higher = longer survival
Method in brief: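 In this screen, tumor-bearing mice given compound are compared to those given vehicle, and their survival values are reported as a treated-to-control quotient.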

[1] = endpoint: mean survival time, dose: 100.0 mg/kg/injection, schedule: Q01DX009 (ip), vehicle: saline
[2] = endpoint: mean survival time, dose: 100.0 mg/kg/injection, schedule: Q04DX003 (ip), vehicle: saline
[3] = endpoint: mean survival time, dose: 200.0 mg/kg/injection, schedule: Q01DX009 (ip), vehicle: saline
[4] = endpoint: mean survival time, dose: 200.0 mg/kg/injection, schedule: Q04DX003 (ip), vehicle: saline
[5] = endpoint: mean survival time, dose: 400.0 mg/kg/injection, schedule: Q01DX009 (ip), vehicle: saline
[6] = endpoint: mean survival time, dose: 400.0 mg/kg/injection, schedule: Q04DX003 (ip), vehicle: saline
[7] = endpoint: mean survival time, dose: 25.0 mg/kg/injection, schedule: Q01DX009 (ip), vehicle: saline
[8] = endpoint: mean survival time, dose: 50.0 mg/kg/injection, schedule: Q01DX009 (ip), vehicle: saline
[9] = endpoint: mean survival time, dose: 100.0 mg/kg/injection, schedule: Q01DX001 (ip), vehicle: saline
[10] = endpoint: mean survival time, dose: 100.0 mg/kg/injection, schedule: Q04DX003 (ip), vehicle: Klucel (hydroxypropylcellulose) (HPC)
[11] = endpoint: mean survival time, dose: 200.0 mg/kg/injection, schedule: Q04DX003 (ip), vehicle: Klucel (hydroxypropylcellulose) (HPC)

Measured: T/C

O=[N+]([O-])c1ccc(S(=O)(=O)Nc2ccc(-c3ccccc3)cc2)cc1
inactive: endpoint: mean survival time, dose: 100.0 mg/kg/injection, schedule: Q01DX009 (ip), vehicle: other 110 % of control | endpoint: mean survival time, dose: 100.0 mg/kg/injection, schedule: Q04DX003 (ip), vehicle: other 93 % of control | endpoint: mean survival time, dose: 200.0 mg/kg/injection, schedule: Q01DX009 (ip), vehicle: other 98 % of control | endpoint: mean survival time, dose: 200.0 mg/kg/injection, schedule: Q04DX003 (ip), vehicle: other 96 % of control | endpoint: mean survival time, dose: 400.0 mg/kg/injection, schedule: Q01DX009 (ip), vehicle: other 94 % of control | endpoint: mean survival time, dose: 400.0 mg/kg/injection, schedule: Q04DX003 (ip), vehicle: other 89 % of control

C1OCC2OC12 (stereo not given)
inactive: [1] 97 % of control and 88 % of control | endpoint: mean survival time, dose: 100.0 mg/kg/injection, schedule: Q04DX002 (ip), vehicle: saline 97 % of control and 102 % of control | [2] 101 % of control | [3] 100 % of control and 87 % of control | endpoint: mean survival time, dose: 200.0 mg/kg/injection, schedule: Q04DX002 (ip), vehicle: saline 100 % of control and 101 % of control | [4] 109 % of control | [5] 105 % of control and 87 % of control | endpoint: mean survival time, dose: 400.0 mg/kg/injection, schedule: Q04DX002 (ip), vehicle: saline 104 % of control and 111 % of control | [6] 101 % of control

Cc1cccn2c(=O)cc(Cl)nc12
inactive: endpoint: mean survival time, dose: 100.0 mg/kg/injection, schedule: Q01DX001 (ip), vehicle: carboxymethylcellulose (CMC) 96 % of control | endpoint: mean survival time, dose: 200.0 mg/kg/injection, schedule: Q01DX001 (ip), vehicle: carboxymethylcellulose (CMC) 98 % of control

C=CCc1cc2c(C)cc(=O)oc2c(C)c1OC(C)=O
inactive: endpoint: mean survival time, dose: 100.0 mg/kg/injection, schedule: Q01DX009 (ip), vehicle: gum acacia 100 % of control | endpoint: mean survival time, dose: 100.0 mg/kg/injection, schedule: Q04DX003 (ip), vehicle: gum acacia 98 % of control | endpoint: mean survival time, dose: 200.0 mg/kg/injection, schedule: Q01DX009 (ip), vehicle: gum acacia 96 % of control | endpoint: mean survival time, dose: 200.0 mg/kg/injection, schedule: Q04DX003 (ip), vehicle: gum acacia 103 % of control | endpoint: mean survival time, dose: 400.0 mg/kg/injection, schedule: Q01DX009 (ip), vehicle: gum acacia 91 % of control | endpoint: mean survival time, dose: 400.0 mg/kg/injection, schedule: Q04DX003 (ip), vehicle: gum acacia 90 % of control

O=[N+]([O-])c1ccc(N2CCCCC2)c([N+](=O)[O-])c1
inactive: [7] 96 % of control | [8] 102 % of control | [1] 96 % of control | [3] 98 % of control | [5] 96 % of control

COC(=O)/C=C/CBr
inactive: endpoint: mean survival time, dose: 0.2 mg/kg/injection, schedule: Q01DX015 (ip), vehicle: carboxymethylcellulose (CMC) 91 % of control | endpoint: mean survival time, dose: 4.0 mg/kg/injection, schedule: Q01DX015 (ip), vehicle: carboxymethylcellulose (CMC) 109 % of control | endpoint: mean survival time, dose: 5.0 mg/kg/injection, schedule: Q01DX001 (ip), vehicle: carboxymethylcellulose (CMC) 95 % of control | endpoint: mean survival time, dose: 8.0 mg/kg/injection, schedule: Q01DX015 (ip), vehicle: carboxymethylcellulose (CMC) 91 % of control | endpoint: mean survival time, dose: 10.0 mg/kg/injection, schedule: Q01DX001 (ip), vehicle: carboxymethylcellulose (CMC) 93 % of control | endpoint: mean survival time, dose: 16.0 mg/kg/injection, schedule: Q01DX015 (ip), vehicle: carboxymethylcellulose (CMC) 100 % of control and 102 % of control | endpoint: mean survival time, dose: 32.0 mg/kg/injection, schedule: Q01DX015 (ip), vehicle: carboxymethylcellulose (CMC) 100 % of control

CCO/C=C(/C(=O)OCC)C(=O)C(OCC)OCC
inactive: [1] 101 % of control | [2] 95 % of control | [3] 101 % of control | [4] 97 % of control | [5] 98 % of control | [6] 94 % of control

CCCCCN(C(=N)CCCC)S(=O)(=O)c1ccccc1
inactive: [9] 89 % of control | endpoint: mean survival time, dose: 200.0 mg/kg/injection, schedule: Q01DX001 (ip), vehicle: saline 95 % of control | endpoint: mean survival time, dose: 400.0 mg/kg/injection, schedule: Q01DX001 (ip), vehicle: saline 106 % of control

CCN(c1ccc2c(c1)C(=O)c1ccccc1-2)S(=O)(=O)c1ccc(C)cc1
inactive: [10] 96 % of control | [11] 98 % of control | endpoint: mean survival time, dose: 400.0 mg/kg/injection, schedule: Q04DX003 (ip), vehicle: Klucel (hydroxypropylcellulose) (HPC) 98 % of control

O=C(Nc1cc(Cl)ccc1Oc1cc(Cl)c(Cl)cc1S(=O)(=O)O)Nc1cc(Cl)ccc1Oc1cc(Cl)c(Cl)cc1S(=O)(=O)O
inactive: endpoint: mean survival time, dose: 18.75 mg/kg/injection, schedule: Q01DX009 (ip), vehicle: saline 97 % of control | endpoint: mean survival time, dose: 37.5 mg/kg/injection, schedule: Q01DX009 (ip), vehicle: saline 90 % of control | endpoint: mean survival time, dose: 75.0 mg/kg/injection, schedule: Q01DX001 (ip), vehicle: saline 106 % of control | endpoint: mean survival time, dose: 75.0 mg/kg/injection, schedule: Q01DX009 (ip), vehicle: saline 94 % of control | endpoint: mean survival time, dose: 150.0 mg/kg/injection, schedule: Q01DX001 (ip), vehicle: saline 97 % of control

CCOC(=O)CNC(=O)C1OC(n2cnc3c(N)ncnc32)C2OC(C)(C)OC12 (stereo not given)
inactive: endpoint: mean survival time, dose: 100.0 mg/kg/injection, schedule: Q01DX005 (ip), vehicle: saline 95 % of control | endpoint: mean survival time, dose: 200.0 mg/kg/injection, schedule: Q01DX005 (ip), vehicle: saline 92 % of control

COC(=O)C1CCC2C3CCC4CC(O)CCC4(C)C3CCC12C (stereo not given)
inactive: endpoint: mean survival time, dose: 100.0 mg/kg/injection, schedule: Q01DX001 (ip), vehicle: Klucel (hydroxypropylcellulose) (HPC) 110 % of control | endpoint: mean survival time, dose: 200.0 mg/kg/injection, schedule: Q01DX001 (ip), vehicle: Klucel (hydroxypropylcellulose) (HPC) 100 % of control | endpoint: mean survival time, dose: 400.0 mg/kg/injection, schedule: Q01DX001 (ip), vehicle: Klucel (hydroxypropylcellulose) (HPC) 95 % of control

CCN(CC)c1ccc(C(=O)OCCNC2CCCCC2)cc1
inactive: endpoint: mean survival time, dose: 75.0 mg/kg/injection, schedule: Q01DX001 (ip), vehicle: carboxymethylcellulose (CMC) 94 % of control | endpoint: mean survival time, dose: 150.0 mg/kg/injection, schedule: Q01DX001 (ip), vehicle: carboxymethylcellulose (CMC) 98 % of control

C[N+](C)(C)c1cc2c(nn1)Nc1ccccc1S2
inactive: endpoint: mean survival time, dose: 50.0 mg/kg/injection, schedule: Q01DX001 (ip), vehicle: saline 123 % of control | [9] 116 % of control

O=C1C(Br)=CC(=C2C=C(Br)C(=O)C(Br)=C2)C=C1Br
inactive: endpoint: mean survival time, dose: 50.0 mg/kg/injection, schedule: Q01DX009 (ip), vehicle: Klucel (hydroxypropylcellulose) (HPC) 104 % of control | endpoint: mean survival time, dose: 100.0 mg/kg/injection, schedule: Q01DX009 (ip), vehicle: Klucel (hydroxypropylcellulose) (HPC) 117 % of control | [10] 96 % of control | endpoint: mean survival time, dose: 200.0 mg/kg/injection, schedule: Q01DX009 (ip), vehicle: Klucel (hydroxypropylcellulose) (HPC) 104 % of control | [11] 108 % of control

C[C@H]1C(=O)O[C@@H]2CCN3CC=C(COC(=O)[C@](C)(O)[C@@]1(C)O)[C@H]23
inactive: endpoint: mean survival time, dose: 3.13 mg/kg/injection, schedule: Q01DX010 (ip), vehicle: saline 93 % of control and 94 % of control | endpoint: mean survival time, dose: 6.25 mg/kg/injection, schedule: Q01DX009 (ip), vehicle: saline 95 % of control and 104 % of control | endpoint: mean survival time, dose: 6.25 mg/kg/injection, schedule: Q01DX010 (ip), vehicle: saline 96 % of control and 87 % of control | endpoint: mean survival time, dose: 12.5 mg/kg/injection, schedule: Q01DX009 (ip), vehicle: saline 92 % of control and 104 % of control | endpoint: mean survival time, dose: 12.5 mg/kg/injection, schedule: Q01DX010 (ip), vehicle: saline 92 % of control and 93 % of control | endpoint: mean survival time, dose: 17.6 mg/kg/injection, schedule: Q01DX Z (ip), vehicle: methylcellulose (MC) 98 % of control | [7] 103 % of control and 104 % of control | endpoint: mean survival time, dose: 25.0 mg/kg/injection, schedule: Q01DX010 (ip), vehicle: saline 92 % of control and 94 % of control | endpoint: mean survival time, dose: 26.8 mg/kg/injection, schedule: Q01DX Z (ip), vehicle: methylcellulose (MC) 101 % of control | endpoint: mean survival time, dose: 40.0 mg/kg/injection, schedule: Q01DX Z (ip), vehicle: methylcellulose (MC) 101 % of control | [8] 105 % of control and 121 % of control | endpoint: mean survival time, dose: 60.0 mg/kg/injection, schedule: Q01DX Z (ip), vehicle: methylcellulose (MC) 95 % of control | endpoint: mean survival time, dose: 90.0 mg/kg/injection, schedule: Q01DX Z (ip), vehicle: methylcellulose (MC) 106 % of control | endpoint: mean survival time, dose: 135.0 mg/kg/injection, schedule: Q01DX Z (ip), vehicle: methylcellulose (MC) 111 % of control and 113 % of control | endpoint: mean survival time, dose: 193.0 mg/kg/injection, schedule: Q01DX Z (ip), vehicle: methylcellulose (MC) 108 % of control | endpoint: median survival time, dose: 6.25 mg/kg/injection, schedule: Q01DX009 (ip), vehicle: saline 95 % of control and 100 % of control | endpoint: median survival time, dose: 12.5 mg/kg/injection, schedule: Q01DX009 (ip), vehicle: saline 100 % of control | endpoint: median survival time, dose: 25.0 mg/kg/injection, schedule: Q01DX009 (ip), vehicle: saline 100 % of control | endpoint: median survival time, dose: 50.0 mg/kg/injection, schedule: Q01DX009 (ip), vehicle: saline 100 % of control and 110 % of control
